In publication PMC3076311 (Nature structural & molecular biology, 2011):

Biological target: TcdB CPD E753R R745E (Clostridioides difficile, UniProt P18177, E753R/R745E)
Assay type: biochemical, Clostridium difficile

## inositol hexakisphosphate [InsP6]
  factor by which activity is decreased relative to wildtype TcdB CPD: 23
